In patent publication US11339171B2, “MDM2 inhibitors” (Gan & Lee Pharmaceuticals, priority 2017, dated 2022):
Values joined by “and” are separate entries in the source; they are usually repeats but may differ in a detail not shown here. Identical values can stand only once. Like-named read-outs stand apart in the source and are kept apart here.

Experiments:
MDM2 = target: T1, MDM2 (Homo sapiens, UniProt Q00987); experiment: Inhibition test of MDM2-P53 (GST-MDM2, Biotin-P53, Anti-GST-Tb, SA-XL665); assay type: binding
T1 construct: made in house
T1 sequence (Q00987 whole entry): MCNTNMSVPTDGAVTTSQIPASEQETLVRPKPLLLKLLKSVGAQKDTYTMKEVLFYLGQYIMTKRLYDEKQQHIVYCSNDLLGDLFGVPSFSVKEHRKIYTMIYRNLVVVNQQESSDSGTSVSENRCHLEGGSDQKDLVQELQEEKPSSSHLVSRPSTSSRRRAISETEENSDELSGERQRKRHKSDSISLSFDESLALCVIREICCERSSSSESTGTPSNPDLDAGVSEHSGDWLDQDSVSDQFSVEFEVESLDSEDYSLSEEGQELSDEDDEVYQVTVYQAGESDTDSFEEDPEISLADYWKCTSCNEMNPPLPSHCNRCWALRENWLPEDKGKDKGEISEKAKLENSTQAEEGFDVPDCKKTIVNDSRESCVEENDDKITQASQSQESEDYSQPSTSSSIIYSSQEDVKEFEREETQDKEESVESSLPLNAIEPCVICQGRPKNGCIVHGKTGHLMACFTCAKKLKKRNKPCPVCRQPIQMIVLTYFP
Summary of the method: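 Compounds, serially diluted 5-fold (twelve concentrations), were shaken for 90 min at 25° C with a mix of GST-MDM2 (4 nM final), Biotin-P53, anti-GST-Tb and SA-XL665. Buffer: 1×PBS, 0.1% BSA, 5 mM DTT, 1 mM AEBSF; signal read on a microplate reader.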

[1] = Pharmacokinetics in ICR mice after intravenous and intragastric administration; assay type: in vivo; conditions: for MRT last: read-out: MRT(0-t); for MRT inf: read-out: MRT(0-∞); for Tmax: read-out: Tmax; for Vd: read-out: Vz; for half-life: read-out: t1/2 (converted)
Summary of the method: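 Male ICR mice, fasted overnight, n=3 per route, given 2 mg/kg IV or 5 mg/kg intragastric in 5% DMSO/40% PEG400/55% (10% HP-β-CD in saline). Plasma drug levels measured by LC-MS/MS after protein precipitation (LLOQ 1 ng/mL); noncompartmental AUC, t1/2, MRT, Cmax, Tmax, F, Vz, CL derived.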

[2] = test system: human osteosarcoma cell line SJSA-1; experiment: Inhibition of proliferation of human osteosarcoma cell line SJSA-1 (DAPI staining, In Cell Analyzer); conditions: Homo sapiens, SJSA-1, 72 h, read-out: IC50 (nM), inhibitory activity on proliferation of human osteosarcoma cell line SJSA-1, SJSA-1, incubated 72 h
[3] = ICR mice, IV 2 mg/kg, individual animals 301-303, 2 mg/kg
[4] = ICR mice, PO 5 mg/kg, individual animals 401-403, 5 mg/kg
[5] = male, ICR, mouse, plasma, iv, 2 mg/kg, ICR mice, IV 2 mg/kg, individual animals 301-303
[6] = male, ICR, mouse, plasma, iv, 2 mg/kg, ICR mice, IV 2 mg/kg, mean of 3 animals
[7] = male, ICR, mouse, plasma, po, 5 mg/kg, ICR mice, PO 5 mg/kg, individual animals 401-403
[8] = male, ICR, mouse, plasma, po, 5 mg/kg, ICR mice, PO 5 mg/kg, mean of 3 animals

## COc1nc(N(C)C)ncc1-c1nc2c(n1C(C)C)[C@@]1(C(=O)Nc3cc(Cl)ccc31)N(c1cc(Cl)cnc1C)C2=O [Example S-135, (S)-6-chloro-5′-(5-chloro-2-methylpyridin-3-yl)-2′-(2-(dimethylamino)-4-methoxypyrimidin-5-yl)-3′-isopropyl-3′H-spiro[dihydroindole-3,4′-pyrrolo[3,4-d]imidazole]-2,6′(5′H)-dione]
MDM2
  IC50: 1.36 nM
[1]; [3]
  AUC(0-t): 7341.09 ng·h/mL and 6495.01 ng·h/mL
  AUC(0-∞): 7977.92 ng·h/mL and 7378.29 ng·h/mL
  CL: 4.18 mL/min/kg and 4.52 mL/min/kg
  Cmax: 3518.53 ng/mL and 3314.60 ng/mL
  MRT(0-t): 1.66 h and 1.70 h
  MRT(0-∞): 2.21 h and 2.57 h
  Vz: 0.64 L/kg and 0.80 L/kg
  t1/2: 1.78 h and 2.03 h
[1]; ICR mice, PO 5 mg/kg vs IV 2 mg/kg, mean
  F*: 48.91%
[1]; [4]
  AUC(0-t): 7012.03 ng·h/mL and 9412.84 ng·h/mL
  AUC(0-∞): 7126.47 ng·h/mL and 9616.11 ng·h/mL
  Cmax: 2014.04 ng/mL and 2249.28 ng/mL
  MRT(0-t): 2.19 h and 2.43 h
  MRT(0-∞): 2.32 h and 2.59 h
  t1/2: 1.27 h and 1.34 h
[1]; [5]
  AUC(0-inf): 7840 ng·h/mL
  clearance: 4.25 mL/min/kg
  MRT last: 1.6 h
  MRT inf: 2.09 h
  Tmax: 0.08 h
  Vd: 0.61 L/kg
  half-life: 1.65 h
[1]; male, ICR, mouse, plasma, iv, 2 mg/kg, ICR mice, IV 2 mg/kg, individual animals 301-303, read-out: AUC(0-t)
  AUC(0-t): 7270 ng·h/mL
[1]; male, ICR, mouse, plasma, iv, 2 mg/kg, ICR mice, IV 2 mg/kg, individual animals 301-303, read-out: Cmax
  Cmax: 3900 ng/mL
[1]; [6]
  AUC(0-inf): 7730 ng·h/mL
  clearance: 4.32 mL/min/kg
  MRT last: 1.65 h
  MRT inf: 2.29 h
  Tmax: 0.083 h
  Vd: 0.68 L/kg
  half-life: 1.82 h
[1]; male, ICR, mouse, plasma, iv, 2 mg/kg, ICR mice, IV 2 mg/kg, mean of 3 animals, read-out: AUC(0-t)
  AUC(0-t): 7040 ng·h/mL
[1]; male, ICR, mouse, plasma, iv, 2 mg/kg, ICR mice, IV 2 mg/kg, mean of 3 animals, read-out: Cmax
  Cmax: 3580 ng/mL
[1]; [7]
  AUC(0-inf): 9970 ng·h/mL
  MRT last: 2.64 h
  MRT inf: 3.12 h
  Tmax: 1 h
  half-life: 1.87 h
[1]; male, ICR, mouse, plasma, po, 5 mg/kg, ICR mice, PO 5 mg/kg, individual animals 401-403, read-out: AUC(0-t)
  AUC(0-t): 9390 ng·h/mL
[1]; male, ICR, mouse, plasma, po, 5 mg/kg, ICR mice, PO 5 mg/kg, individual animals 401-403, read-out: Cmax
  Cmax: 2160 ng/mL
[1]; [8]
  AUC(0-inf): 8910 ng·h/mL
  MRT last: 2.42 h
  MRT inf: 2.67 h
  Tmax: 1 h
  half-life: 1.49 h
[1]; male, ICR, mouse, plasma, po, 5 mg/kg, ICR mice, PO 5 mg/kg, mean of 3 animals, read-out: AUC(0-t)
  AUC(0-t): 8600 ng·h/mL
[1]; male, ICR, mouse, plasma, po, 5 mg/kg, ICR mice, PO 5 mg/kg, mean of 3 animals, read-out: Cmax
  Cmax: 2140 ng/mL
[1]; male, ICR, mouse, plasma, po, 5 mg/kg, oral intragastric administration 5 mg/kg, read-out: AUC0-t
  AUC(0-t): 8600 ng·h/mL
[2]
  IC50: 96.2 nM
